Calls of active or inactive are those of the source. The rule behind the calls is not given here.
What was measured:
[1] = Cytotoxicity against human HepG2 cells assessed as reduction in cell viability; assay type: toxicity, cell-based
Staphylococcus aureus [2] = test: Antibacterial activity against Staphylococcus aureus CCM 4223 persisters assessed as reduction in bacterial cell count at 1 to 10 times MIC incubated for 3 hrs by cell counting method; assay type: functional, organism-based
Staphylococcus aureus [3] = test: Antibacterial activity against wild type Staphylococcus aureus 4482/A assessed as reduction in microbial growth incubated for 24 hrs by microdilution assay; assay type: functional
Cell membrane [4] = test: Induction of plasma membrane depolarization in Staphylococcus aureus assessed as formation of fluctuating unstable pores at 2.5 mg/L; assay type: cell membranes
[5] = Gradient chromatographic hydrophobicity index of the compound at pH 3.7 by HPLC analysis; assay type: ADME
[6] = Toxicity in human cornea epidermis model assessed as eye irritation incubated for 42 hrs; assay type: tissue-based
Cell membrane [7] = test: Induction of cell envelope damage in Staphylococcus aureus assessed as tubular structure at 8 mg/L measured after 8 hrs by scanning electron microscope analysis
[8] = Hemolytic activity in human RBC assessed as haemoglobin release measured after 3 hr; assay type: toxicity, cell-based, Erythrocyte; details: red blood cells (erythrocytes)
Pseudomonas aeruginosa [9] = test: Antibacterial activity against multidrug-resistant Pseudomonas aeruginosa assessed as reduction in microbial growth incubated for 24 hrs by microdilution assay; assay type: functional
Escherichia coli [10] = test: Antibacterial activity against Escherichia coli CCM 3954 persisters assessed as reduction in bacterial cell count at 1 to 10 times MICincubated for 3 hrs by cell counting method; assay type: functional, organism-based
Staphylococcus aureus [11] = test: microbe, parasite or virus in culture; details: 5017/C, 24 h
Description: Antibacterial activity against wild type Staphylococcus aureus 5017/C assessed as reduction in microbial growth incubated for 24 hrs by microdilution assay

Cell membrane [12] = test: Induction of cell envelope damage in Staphylococcus aureus assessed as loss of cell integrity at 8 mg/L measured after 8 hrs by scanning electron microscope analysis; assay type: subcellular
Escherichia coli [13] = test: Antibacterial activity against Escherichia coli ATCC 25922 = CCM 3954 assessed as inhibition of bacterial growth incubated for 24 hrs in presence of BSA by microdilution assay; assay type: functional
Staphylococcus aureus [14] = test: Antibacterial activity against wild type Staphylococcus aureus 4557/A assessed as reduction in microbial growth incubated for 24 hrs by microdilution assay; assay type: functional
Staphylococcus aureus [15] = test: Antibacterial activity against wild type Staphylococcus aureus 77/CF assessed as reduction in microbial growth incubated for 24 hrs by microdilution assay; assay type: functional
Staphylococcus aureus [16] = test: Bactericidal activity against Staphylococcus aureus CCM 4223 assessed as reduction in viable cell count measured after 24 hrs by Time kill assay; assay type: functional, organism-based; details: DDE = dose-dependent effect
Enterococcus faecium = test: Antibacterial activity against vancomycin resistant Enterococcus faecium 419/ANA assessed as reduction in microbial growth incubated for 24 hrs by microdilution assay; assay type: functional
Staphylococcus aureus [17] = test: Antibacterial activity against wild type Staphylococcus aureus 4679/B assessed as reduction in microbial growth incubated for 24 hrs by microdilution assay; assay type: functional
Cell membrane [18] = test: Induction of cell envelope damage in Staphylococcus aureus assessed as loss of cytoplasmic content at 8 mg/L measured after 8 hrs by scanning electron microscope analysis; assay type: subcellular
Escherichia coli [19] = test: Antibacterial activity against multidrug-resistant Escherichia coli CE5556 expressing CTX-M-15 assessed as reduction in microbial growth incubated for 24 hrs by microdilution assay; assay type: functional
Staphylococcus aureus [20] = test: Antibacterial activity against wild type Staphylococcus aureus 4717/B assessed as reduction in microbial growth incubated for 24 hrs by microdilution assay; assay type: functional
Staphylococcus aureus [21] = test: Antibacterial activity against […] Staphylococcus aureus 4460/A assessed as reduction in microbial growth incubated for 24 hrs by microdilution assay; assay type: functional
Escherichia coli [22] = test: Antibacterial activity against Escherichia coli ATCC 25922 = CCM 3954 assessed as inhibition of bacterial growth incubated for 24 hrs by microdilution assay; assay type: functional
Staphylococcus aureus [23] = test: Antibacterial activity against wild type Staphylococcus aureus 4515/A assessed as reduction in microbial growth incubated for 24 hrs by microdilution assay; assay type: functional
Staphylococcus aureus [24] = test: microbe, parasite or virus in culture; details: 4880/C, 24 h
Description: Antibacterial activity against wild type Staphylococcus aureus 4880/C assessed as reduction in microbial growth incubated for 24 hrs by microdilution assay

Escherichia coli [25] = test: Bactericidal activity against Escherichia coli CCM 3954 assessed as reduction in viable cell count measured after 24 hrs by Time kill assay; assay type: functional, organism-based; details: dose 2-8 mg/L, DDE = dose-dependent effect
Staphylococcus aureus [26] = test: Antibacterial activity against wild type Staphylococcus aureus 4502/A assessed as reduction in microbial growth incubated for 24 hrs by microdilution assay; assay type: functional
Pseudomonas aeruginosa [27] = test: Antibacterial activity against Pseudomonas aeruginosa assessed as reduction in microbial growth measured after 20 cycles by microdilution assay; assay type: functional; details: time 24 hrs
Pseudomonas aeruginosa [28] = test: Antibacterial activity against Pseudomonas aeruginosa ATCC 27853 = CCM 3955 assessed as inhibition of bacterial growth incubated for 24 hrs by microdilution assay; assay type: functional
Staphylococcus aureus [29] = test: Antibacterial activity against Staphylococcus aureus ATCC 29213 = CCM 4223 assessed as inhibition of bacterial growth incubated for 24 hrs by microdilution assay; assay type: functional
Staphylococcus aureus [30] = test: Antibacterial activity against wild type Staphylococcus aureus 4738/B assessed as reduction in microbial growth incubated for 24 hrs by microdilution assay; assay type: functional
Cell membrane [31] = test: Induction of plasma membrane depolarization in Escherichia coli CCM 3954 assessed as increase in fluorescence intensity at 2.5 mg/L measured after 80 seconds by DiSC3-5 dye based spectrofluorometer method; assay type: cell membranes; details: time 80.0 sec
[32] = tested on: Staphylococcus epidermidis; test: Antibacterial activity against Staphylococcus epidermidis CCM 7221 assessed as inhibition of bacterial growth incubated for 24 hrs by microdilution assay; assay type: functional
Lipid bilayer = test: Induction of membrane disruption of bacterial inner membrane mimic DOPE/DOPG (2:1) large unilamellar vesicles assessed as carboxyfluorescein leakage at 2.5 mg/L measured after 90 mins by spectrofluorometer analysis
Staphylococcus aureus [33] = test: Antibacterial activity against methicillin resistant Staphylococcus aureus 4591/A assessed as reduction in microbial growth incubated for 24 hrs by microdilution assay; assay type: functional
Staphylococcus aureus [34] = test: Antibacterial activity against wild type Staphylococcus aureus 4788/B assessed as reduction in microbial growth incubated for 24 hrs by microdilution assay; assay type: functional
Staphylococcus aureus [35] = test: Antibacterial activity against wild type Staphylococcus aureus 78/CF assessed as reduction in microbial growth incubated for 24 hrs by microdilution assay; assay type: functional
Pseudomonas aeruginosa [36] = test: Antibacterial activity against Pseudomonas aeruginosa CCM 3955 persisters assessed as reduction in bacterial cell count at 1 to 10 times MIC incubated for 3 hrs by cell counting method; assay type: functional, organism-based
Staphylococcus aureus [37] = test: Antibacterial activity against wild type Staphylococcus aureus 4566/A assessed as reduction in microbial growth incubated for 24 hrs by microdilution assay; assay type: functional
Staphylococcus aureus [38] = test: microbe, parasite or virus in culture; details: 4862/C, 24 h
Description: Antibacterial activity against wild type Staphylococcus aureus 4862/C assessed as reduction in microbial growth incubated for 24 hrs by microdilution assay

Enterococcus faecalis = test: Antibacterial activity against Enterococcus faecalis ATCC 29212 = CCM 4224 assessed as inhibition of bacterial growth incubated for 24 hrs by microdilution assay; assay type: functional
Staphylococcus aureus [39] = test: Antibacterial activity against […] Staphylococcus aureus 4461/A assessed as reduction in microbial growth incubated for 24 hrs by microdilution assay; assay type: functional
Staphylococcus aureus [40] = test: Antibacterial activity against Staphylococcus aureus ATCC 29213 = CCM 4223 assessed as inhibition of bacterial growth incubated for 24 hrs in presence of BSA by microdilution assay; assay type: functional
Cell membrane [41] = test: Induction of cell envelope damage in Staphylococcus aureus assessed as membranous nanotubes extrude from dying/dead cells at 8 mg/L measured after 8 hrs by scanning electron microscope analysis

**Q.** With `CCCCCCCCOP(=O)(CCN(CCCN)CCCN)OCCCCCCOP(=O)(CCN(CCCN)CCCN)OCCCCCCCC.Cl.Cl.Cl.Cl.Cl.Cl` (centres undefined) as the molecule, how does the CC50 [1] read?
**A.** Its CC50 is 33.1 µM.

**Q.** And the Activity (Staphylococcus aureus [2])?
**A.** Its Activity is “Active”.

**Q.** What about the MIC (Staphylococcus aureus [3]) of the same molecule?
**A.** Its MIC is 0.5 µg/mL.

**Q.** What about the Activity (Cell membrane [4]) of the same molecule?
**A.** The Activity was “Active”.

**Q.** And the CHI [5]?
**A.** The CHI was 36.9.

**Q.** What about the Activity [6] of the same molecule?
**A.** The Activity was “Non-Toxic”.

**Q.** What about the Activity (Cell membrane [7]) of the same molecule?
**A.** The Activity was “Active”.

**Q.** What about the HC50 at 3 h [8] of the same molecule?
**A.** The HC50 at 3 h was 162 µg/mL.

**Q.** And the MIC (Pseudomonas aeruginosa [9])?
**A.** The MIC was 2 µg/mL.

**Q.** And the Activity (Escherichia coli [10])?
**A.** Its Activity is “Active”.

**Q.** What about the MIC (Staphylococcus aureus [11]) of the same molecule?
**A.** The MIC was 0.5 µg/mL.

**Q.** What about the Activity (Cell membrane [12]) of the same molecule?
**A.** The Activity was “Active”.

**Q.** And the MIC (Escherichia coli [13])?
**A.** Its MIC is 0.5 µg/mL.

**Q.** And the MIC (Staphylococcus aureus [14])?
**A.** The MIC was 0.5 µg/mL.

**Q.** What about the MIC (Staphylococcus aureus [15]) of the same molecule?
**A.** Its MIC is 0.5 µg/mL.

**Q.** And the Activity (Staphylococcus aureus [16])?
**A.** Its Activity is “Dde”.

**Q.** What about the MIC (Enterococcus faecium) of the same molecule?
**A.** The MIC was 8 µg/mL.

**Q.** And the MIC (Staphylococcus aureus [17])?
**A.** The MIC was 0.5 µg/mL.

**Q.** And the Activity (Cell membrane [18])?
**A.** Its Activity is “Active”.

**Q.** And the MIC (Escherichia coli [19])?
**A.** Its MIC is 1 µg/mL.

**Q.** What about the MIC (Staphylococcus aureus [20]) of the same molecule?
**A.** The MIC was 0.5 µg/mL.

**Q.** And the MIC (Staphylococcus aureus [21])?
**A.** The MIC was 1 µg/mL.

**Q.** And the MIC (Escherichia coli [22])?
**A.** The MIC was 0.5 µg/mL.

**Q.** And the MIC (Staphylococcus aureus [23])?
**A.** The MIC was 1 µg/mL.

**Q.** What about the MIC (Staphylococcus aureus [24]) of the same molecule?
**A.** Its MIC is 0.5 µg/mL.

**Q.** And the Activity (Escherichia coli [25])?
**A.** The Activity was “Dde”.

**Q.** What about the MIC (Staphylococcus aureus [26]) of the same molecule?
**A.** The MIC was 1 µg/mL.

**Q.** What about the “fold change (FC)” value (Pseudomonas aeruginosa [27]) of the same molecule?
**A.** The value was 32.

**Q.** What about the MIC (Pseudomonas aeruginosa [28]) of the same molecule?
**A.** Its MIC is 2 µg/mL.

**Q.** And the MIC (Staphylococcus aureus [29])?
**A.** Its MIC is 0.5 µg/mL.

**Q.** And the MIC (Staphylococcus aureus [30])?
**A.** The MIC was 0.5 µg/mL.

**Q.** And the Activity (Cell membrane [31])?
**A.** Its Activity is “Active”.

**Q.** And the MIC [32]?
**A.** The MIC was 0.5 µg/mL.

**Q.** What about the Activity (Lipid bilayer) of the same molecule?
**A.** Its Activity is “Active”.

**Q.** And the MIC (Staphylococcus aureus [33])?
**A.** The MIC was 1 µg/mL.

**Q.** What about the MIC (Staphylococcus aureus [34]) of the same molecule?
**A.** The MIC was 0.5 µg/mL.

**Q.** And the MIC (Staphylococcus aureus [35])?
**A.** The MIC was 1 µg/mL.

**Q.** And the Activity (Pseudomonas aeruginosa [36])?
**A.** Its Activity is “Active”.

**Q.** What about the MIC (Staphylococcus aureus [37]) of the same molecule?
**A.** The MIC was 0.5 µg/mL.

**Q.** And the MIC (Staphylococcus aureus [38])?
**A.** Its MIC is 0.5 µg/mL.

**Q.** What about the MIC (Enterococcus faecalis) of the same molecule?
**A.** Its MIC is 1 µg/mL.

**Q.** And the MIC (Staphylococcus aureus [39])?
**A.** Its MIC is 0.5 µg/mL.

**Q.** And the MIC (Staphylococcus aureus [40])?
**A.** Its MIC is 1 µg/mL.

**Q.** What about the Activity (Cell membrane [41]) of the same molecule?
**A.** The Activity was “Active”.

— ChEMBL document CHEMBL5120927, “LEGO-Lipophosphonoxins: A Novel Approach in Designing Membrane Targeting Antimicrobials” (J Med Chem, 2022)
